{"source": "paper PMC6401476", "about": "“The Evolution of SlyA/RovA Transcription Factors from Repressors to Countersilencers in Enterobacteriaceae” (mBio, 2019)", "molecules": {"B1": {"name": "SlyA of Salmonella enterica serovar Typhimurium (His-SlyA) (natural protein)", "chain": "ESPLGSDLARLVRIWRALIDHRLKPLELTQTHWVTLHNIHQLPPDQSQIQLAKAIGIEQPSLVRTLDQLEDKGLISRQTCASDRRAKRIKLTEKADALIAEMEEVIHKTRGEILAGISSEEIELLIKLIAKLEHNIMELHSHD", "notes": "SlyA, MarR family transcription factor, Salmonella enterica serovar Typhimurium; the tips of the wings are not seen in the model; Residue numbers in the text are based on an alignment of SlyA orthologs and are not in register with the numbers of the deposited PDB file 3DEU; Strains were built in the ATCC 14028s background; also called SlyASTM; SlyASTm; not shown: 6xHis, N-terminal, kept"}}, "key": {"[1]": {"target": "T1, SlyA (Salmonella enterica, UniProt P40676)", "T1 construct": "His-SlyA (N-terminal 6×His-tagged)", "T1 sequence (P40676 whole entry)": "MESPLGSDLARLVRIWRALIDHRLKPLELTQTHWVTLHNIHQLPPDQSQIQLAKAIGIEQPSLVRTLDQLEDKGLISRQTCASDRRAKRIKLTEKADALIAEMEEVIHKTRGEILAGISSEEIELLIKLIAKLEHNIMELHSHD", "test": "intrinsic tryptophan fluorescence quenching; 1H, […]-TROSY NMR", "assay_type": "binding"}, "[2]": {"target": "T1, SlyA", "test": "crystal structure at […] Å; 1H, […]-TROSY NMR; supported by in vitro transcription", "assay_type": "binding"}, "[3]": {"target": "the molecule itself", "test": "crystal structure; His-SlyA co-crystallised with 75 mM sodium salicylate; sitting-drop vapor diffusion, room temperature; 20% PEG 400, 10% glycerol, 0.1 M phosphate-citrate buffer pH 4.2, 0.2 M ammonium sulfate; space group P21212, two SlyA molecules in the asymmetric unit, each dimer completed by space group symmetry"}}}
{"molecule": "O=C(O)c1ccccc1", "note": "[benzoate]", "values": [{"measurement": "Kd", "setting": "[1]", "result": "~40", "unit": "µM"}]}
{"molecule": "O=C(O)c1ccccc1O", "note": "[salicylate]", "values": [{"measurement": "crystal structure at 2.3 Å; 1H,15N-TROSY NMR; supported by in vitro transcriptio", "setting": "[2]", "result": "The crystal structure of the SlyA dimer with salicylate bound at sites I and II was determined"}]}
{"molecule": "B1", "values": [{"measurement": "stoichiometry N", "setting": "[3]", "result": 2}]}
